# Source: ChEMBL document CHEMBL5365431 (J Med Chem, 2023)
# Assays:
# [1] = molecular target: Poly [ADP-ribose] polymerase 1 (Homo sapiens, UniProt P09874); assay: Inhibition of PARP1 (unknown origin) using histone as substrate by ELISA
# [2] = system: CAPAN-1; assay: Antiproliferative activity against human CAPAN-1 cells assessed as cell proliferation inhibition incubated for 7 days by SRB assay; format: functional, cell-based
# [3] = system: CAPAN-1; assay: Antiproliferative activity against human Talazoparib-resistant CAPAN-1 cells assessed as cell proliferation inhibition incubated for 7 days by SRB assay; format: functional, cell-based
# [4] = Antiproliferative activity against human Olaparib-resistant CAPAN-1 cells assessed as cell proliferation inhibition incubated for 7 days by SRB assay; format: functional, cell-based
# [5] = Stabilization of human His-tagged PARP1-DNA complex assessed as increase in fluorescence signal incubated for 60 mins using NAD+ as substrate by DSB fluorescence polarization assay
# [6] = Clearance in Sprague-Dawley rat at 5 mg/kg, iv and measured upto 24 hrs; format: ADME, organism-based; conditions: in vivo
# [7] = Half life in Sprague-Dawley rat at 5 mg/kg, iv and measured upto 24 hrs; format: ADME, organism-based; conditions: in vivo
# Chain of Poly [ADP-ribose] polymerase 1 (P09874 whole entry): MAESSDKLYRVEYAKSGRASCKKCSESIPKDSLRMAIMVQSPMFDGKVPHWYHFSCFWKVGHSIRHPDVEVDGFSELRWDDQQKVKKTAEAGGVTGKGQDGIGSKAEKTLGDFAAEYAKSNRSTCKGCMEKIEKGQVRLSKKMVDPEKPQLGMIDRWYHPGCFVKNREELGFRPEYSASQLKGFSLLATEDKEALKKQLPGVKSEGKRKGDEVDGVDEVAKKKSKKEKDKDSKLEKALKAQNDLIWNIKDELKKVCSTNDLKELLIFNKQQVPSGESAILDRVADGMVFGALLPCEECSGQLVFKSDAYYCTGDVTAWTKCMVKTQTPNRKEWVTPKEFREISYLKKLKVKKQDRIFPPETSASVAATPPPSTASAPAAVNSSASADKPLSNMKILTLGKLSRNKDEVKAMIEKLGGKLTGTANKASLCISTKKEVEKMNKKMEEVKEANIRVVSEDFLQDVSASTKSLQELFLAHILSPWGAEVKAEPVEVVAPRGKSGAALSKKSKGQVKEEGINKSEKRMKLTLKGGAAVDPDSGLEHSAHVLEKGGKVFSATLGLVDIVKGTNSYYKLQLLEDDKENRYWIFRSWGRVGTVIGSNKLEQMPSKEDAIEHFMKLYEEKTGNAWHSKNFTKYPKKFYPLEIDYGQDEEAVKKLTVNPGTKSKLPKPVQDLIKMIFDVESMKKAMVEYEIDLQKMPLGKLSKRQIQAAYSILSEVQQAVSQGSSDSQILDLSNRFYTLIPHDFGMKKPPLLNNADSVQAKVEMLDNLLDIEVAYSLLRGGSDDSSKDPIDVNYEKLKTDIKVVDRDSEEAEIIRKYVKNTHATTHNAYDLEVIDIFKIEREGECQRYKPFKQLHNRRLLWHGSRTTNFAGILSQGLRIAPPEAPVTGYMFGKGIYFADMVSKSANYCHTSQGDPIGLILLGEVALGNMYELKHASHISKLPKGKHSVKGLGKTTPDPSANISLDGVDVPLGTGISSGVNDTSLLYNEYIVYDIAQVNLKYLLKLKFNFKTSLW
SMILES,IC50 [1],IC50 [2],IC50 [3],IC50 [4],EC50 [5],clearance [6],half-life [7]
N#Cc1ccc(-c2nnc3n2CCN(C(=O)c2cc(Cc4n[nH]c(=O)c5ccccc45)ccc2F)C3)o1,0.23 nM,83.8 nM,> 10000 nM,–,–,–,–
O=C(c1cc(Cc2n[nH]c(=O)c3ccccc23)ccc1F)N1CCn2c(nnc2-c2ccc(C3COC3)o2)C1,6.19 nM,15.5 nM,191 nM,363 nM,–,–,–
CCN(CC)Cc1ccc(-c2nnc3n2CCN(C(=O)c2cc(Cc4n[nH]c(=O)c5ccccc45)ccc2F)C3)o1,0.96 nM,98.3 nM,701 nM,812 nM,–,–,–
O=C(c1cc(Cc2n[nH]c(=O)c3ccccc23)ccc1F)N1CCn2c(nnc2-c2ccc(Cl)o2)C1,0.74 nM,1.48 nM,5.91 nM,12.6 nM,–,–,–
O=C(c1cc(Cc2n[nH]c(=O)c3ccccc23)ccc1F)N1CCn2c(nnc2-c2ccc(C(F)(F)CO)o2)C1,5.67 nM,15.9 nM,115 nM,137 nM,–,–,–
Cn1ccc(-c2nnc3n2CCN(C(=O)c2cc(Cc4n[nH]c(=O)c5ccccc45)ccc2F)C3)n1,6.34 nM,30.4 nM,168 nM,135 nM,–,–,–
O=C(c1cc(Cc2n[nH]c(=O)c3ccccc23)ccc1F)N1CCn2c(nnc2-c2ccoc2)C1,0.44 nM,8.81 nM,42.5 nM,73.6 nM,–,–,–
Cc1cccc(-c2nnc3n2CCN(C(=O)c2cc(Cc4n[nH]c(=O)c5ccccc45)ccc2F)C3)n1,13.5 nM,6.47 nM,68.5 nM,42.2 nM,–,–,–
CP(C)(=O)c1ccc(-c2nnc3n2CCN(C(=O)c2cc(Cc4n[nH]c(=O)c5ccccc45)ccc2F)C3)o1,12.9 nM,3550 nM,> 10000 nM,> 10000 nM,–,–,–
O=C(c1cc(Cc2n[nH]c(=O)c3ccccc23)ccc1F)N1CCn2c(nnc2-c2ccc([N+](=O)[O-])o2)C1,47.4 nM,5.89 nM,214 nM,178 nM,–,–,–
O=C(c1cc(Cc2n[nH]c(=O)c3ccccc23)ccc1F)N1CCn2c(nnc2-c2ccco2)C1,0.26 nM,7.39 nM,40 nM,56.4 nM,–,–,–
O=C(c1cc(Cc2n[nH]c(=O)c3ccccc23)ccc1F)N1CCn2c(nnc2-c2ccc(CN3CCOCC3)o2)C1,1.28 nM,290 nM,2000 nM,5140 nM,–,–,–
O=C(c1cc(Cc2n[nH]c(=O)c3ccccc23)ccc1F)N1CCn2c(nnc2-c2cc(Br)c(Cl)o2)C1,< 0.1 nM,0.24 nM,12.1 nM,20.3 nM,–,–,–
O=C(c1cc(Cc2n[nH]c(=O)c3ccccc23)ccc1F)N1CCn2c(nnc2-c2ccno2)C1,0.97 nM,18.6 nM,249 nM,348 nM,–,–,–
Cc1ccc(-c2nnc3n2CCN(C(=O)c2cc(Cc4n[nH]c(=O)c5ccccc45)ccc2F)C3)o1,0.24 nM,1.82 nM,9.98 nM,8.28 nM,–,–,–
Cn1ncnc1[C@H]1c2n[nH]c(=O)c3cc(F)cc(c23)N[C@@H]1c1ccc(F)cc1 [TALAZOPARIB],–,7.77 nM,906 nM,686 nM,–,–,–
O=C(c1cc(Cc2n[nH]c(=O)c3ccccc23)ccc1F)N1CCn2c(nnc2-c2ccc(C(F)F)o2)C1,23.1 nM,6.64 nM,70.3 nM,71.1 nM,–,–,–

SMILES,IC50 [1],IC50 [2],IC50 [3],IC50 [4],EC50 [5],clearance [6],half-life [7]
O=C(c1cc(Cc2n[nH]c(=O)c3ccccc23)ccc1F)N1CCn2c(nnc2-c2ccc(CN3CCCCC3)o2)C1,0.17 nM,56.8 nM,393 nM,605 nM,–,–,–
O=C(c1cc(Cc2n[nH]c(=O)c3ccccc23)ccc1F)N1CCn2c(nnc2C2CCOC2)C1 (stereo not given),1.91 nM,39.1 nM,517 nM,1110 nM,–,–,–
CN(C)Cc1ccc(-c2nnc3n2CCN(C(=O)c2cc(Cc4n[nH]c(=O)c5ccccc45)ccc2F)C3)o1,1.35 nM,151 nM,941 nM,1030 nM,–,–,–
O=C(c1cc(Cc2n[nH]c(=O)c3ccccc23)ccc1F)N1CCn2c(nnc2-c2ccc(CN3CCSCC3)o2)C1,0.02 nM,50.5 nM,404 nM,618 nM,–,–,–
Cc1cc(-c2nnc3n2CCN(C(=O)c2cc(Cc4n[nH]c(=O)c5ccccc45)ccc2F)C3)oc1C,< 0.001 nM,1.44 nM,21 nM,22.1 nM,–,–,–
O=C(c1cc(Cc2n[nH]c(=O)c3ccccc23)ccc1F)N1CCn2c(nnc2-c2ccc(CN3CCC3)o2)C1,0.96 nM,349 nM,5590 nM,6490 nM,–,–,–
O=C(c1cc(Cc2n[nH]c(=O)c3ccccc23)ccc1F)N1CCn2c(nnc2-c2ccc(C(F)(F)F)o2)C1,61.7 nM,2.32 nM,6.09 nM,52.3 nM,–,–,–
NC(=O)c1cccc2cn(-c3ccc([C@@H]4CCCNC4)cc3)nc12 [NIRAPARIB],–,–,–,–,621 nM,–,–
CNCc1ccc(-c2nnc3n2CCN(C(=O)c2cc(Cc4n[nH]c(=O)c5ccccc45)ccc2F)C3)o1,0.86 nM,500 nM,4600 nM,6150 nM,–,–,–
O=C(c1cc(Cc2n[nH]c(=O)c3ccccc23)ccc1F)N1CCn2c(nnc2-c2ccc(C3CCOCC3)o2)C1,2.33 nM,3.8 nM,78.4 nM,78.2 nM,–,–,–
Cc1nc(-c2nnc3n2CCN(C(=O)c2cc(Cc4n[nH]c(=O)c5ccccc45)ccc2F)C3)cs1,2.14 nM,19 nM,203 nM,–,–,–,–
Cn1cc(-c2nnc3n2CCN(C(=O)c2cc(Cc4n[nH]c(=O)c5ccccc45)ccc2F)C3)cn1,7.32 nM,351 nM,6990 nM,7160 nM,–,–,–
O=C(c1cc(Cc2n[nH]c(=O)c3ccccc23)ccc1F)N1CCN(C(=O)C2CC2)CC1 [OLAPARIB],–,–,–,–,234 nM,34.3 mL/min/kg,31.8 min
NCC(F)(F)c1ccc(-c2nnc3n2CCN(C(=O)c2cc(Cc4n[nH]c(=O)c5ccccc45)ccc2F)C3)o1,8.49 nM,122 nM,627 nM,766 nM,–,–,–
O=C(c1cc(Cc2n[nH]c(=O)c3ccccc23)ccc1F)N1CCn2c(nnc2-c2ccc(CN3CCCC3)o2)C1,1.26 nM,161 nM,905 nM,1430 nM,–,–,–
CNCC(F)(F)c1ccc(-c2nnc3n2CCN(C(=O)c2cc(Cc4n[nH]c(=O)c5ccccc45)ccc2F)C3)o1,8.15 nM,24.3 nM,393 nM,423 nM,–,–,–
